Target: T1, Estrogen receptor (Homo sapiens, UniProt P03372)
T1 sequence (P03372 whole entry): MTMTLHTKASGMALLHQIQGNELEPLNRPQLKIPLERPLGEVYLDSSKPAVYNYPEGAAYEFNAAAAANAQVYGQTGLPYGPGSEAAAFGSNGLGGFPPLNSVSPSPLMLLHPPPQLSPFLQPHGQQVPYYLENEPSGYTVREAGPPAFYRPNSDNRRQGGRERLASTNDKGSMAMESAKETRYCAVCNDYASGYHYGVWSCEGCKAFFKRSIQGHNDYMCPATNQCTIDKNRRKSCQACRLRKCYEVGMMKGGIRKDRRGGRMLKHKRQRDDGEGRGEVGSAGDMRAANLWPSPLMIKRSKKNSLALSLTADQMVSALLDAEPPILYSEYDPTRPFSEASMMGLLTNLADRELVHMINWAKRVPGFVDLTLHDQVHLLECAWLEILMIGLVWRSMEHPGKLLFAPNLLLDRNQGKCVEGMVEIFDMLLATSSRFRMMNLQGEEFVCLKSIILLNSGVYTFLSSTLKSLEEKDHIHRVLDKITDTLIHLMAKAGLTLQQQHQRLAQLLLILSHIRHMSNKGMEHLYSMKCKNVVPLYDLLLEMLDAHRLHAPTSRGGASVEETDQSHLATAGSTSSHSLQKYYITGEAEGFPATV
Description: Binding affinity for human Estrogen receptor alpha

| IC50 [nM] | SMILES |
| --- | --- |
| 990 | COc1cc(O)cc2cc(-c3ccc(O)c(F)c3)oc12 |
| 335 | COc1cc(O)c(Br)c2cc(-c3ccc(O)c(F)c3)oc12 |

Source: ChEMBL document CHEMBL1137038, “7-Substituted 2-phenyl-benzofurans as ER beta selective ligands” (Bioorg Med Chem Lett, 2004)
